The text below walks through data of US10189859B2, “Derivatives of 6-(2,3-dichlorophenyl)-1,2,4-triazin-5-amine” (Nektar Therapeutics, priority 2013, dated 2019).

Several values for one entry are separate records, joined by “and”; a condition that tells them apart may be missing. Equal values may be shown once. Where a name gives a salt, the structure may show the parent alone. Read-outs that look alike come from different tables or passages of the source.

Data set [1] deals with Nav1.7 sodium channels (human SCN9A gene) (Homo sapiens (Human), UniProt Q15858). Kind of data set: Automated patch clamp (IonWorks Barracuda) of Nav1.7 stably expressed in CHO cells. Type of data set: cell-based. As to the method: The potencies of the compounds provided herein to block specific Na+ channels was measured using automated patch clamp electrophysiologically of Nav1.7 sodium channels (human SCN9A gene) stably expressed in CHO cells using the IonWorks™ Barracuda system. Currents were measured from the whole cell patch configuration. From a holding potential of −90 mV, membranes were subjected to a 200 ms pre-pulse to −120 mV, then pulsed to 0 mV to measure blockade of the tonic (resting) state. Inactivated state block was elicited by repolarization to −100 mV (20 ms pulse duration), followed by depolarization to 0 mV (20 ms pulse duration). Peak inward Na+ currents were measured in the presence of vehicle or various concentrations of the test compound to determine the percent block of current. Concentration-response relationships were used to calculate IC50 values for the illustrative compounds.
On the technique in general: Patch clamp records ionic current or voltage across a cell membrane.

For a further data set, the system named is AFP model. The data set is described as follows: AFP animal model. Type of data set: in vivo. To be noted: AFP. The text has this: The efficacy of the compounds when evaluated in additional well-known animal models, AFP, RR, and hyperalgesia, was also explored.
A short description of data set [2]: Pharmacokinetics after intravenous or oral dosing, plasma LC/MS/MS. The class given is in vivo. The settings on record: fasted male Sprague Dawley rats. As to the method: Fasted, male Sprague Dawley rats were dosed intravenously or orally. Blood samples were collected at pre-determined time points and plasma was separated. Test article concentrations were determined in plasma by a LC/MS/MS method. Non compartmental analysis was performed to estimate the area under the plasma concentration vs. time curve (AUC). Clearance parameters (CL), bioavailabilities (F) and half-lives were calculated.

The mark [3] stands for this setting: inactivated state block, CHO cells, read-out: Inactivated state IC50.
[4] abbreviates: tonic (resting) state block, CHO cells, read-out: Tonic state IC50.
[5] abbreviates: read-out: Inactivated state IC50.

Chain of Nav1.7 sodium channels (human SCN9A gene) (Q15858 whole entry): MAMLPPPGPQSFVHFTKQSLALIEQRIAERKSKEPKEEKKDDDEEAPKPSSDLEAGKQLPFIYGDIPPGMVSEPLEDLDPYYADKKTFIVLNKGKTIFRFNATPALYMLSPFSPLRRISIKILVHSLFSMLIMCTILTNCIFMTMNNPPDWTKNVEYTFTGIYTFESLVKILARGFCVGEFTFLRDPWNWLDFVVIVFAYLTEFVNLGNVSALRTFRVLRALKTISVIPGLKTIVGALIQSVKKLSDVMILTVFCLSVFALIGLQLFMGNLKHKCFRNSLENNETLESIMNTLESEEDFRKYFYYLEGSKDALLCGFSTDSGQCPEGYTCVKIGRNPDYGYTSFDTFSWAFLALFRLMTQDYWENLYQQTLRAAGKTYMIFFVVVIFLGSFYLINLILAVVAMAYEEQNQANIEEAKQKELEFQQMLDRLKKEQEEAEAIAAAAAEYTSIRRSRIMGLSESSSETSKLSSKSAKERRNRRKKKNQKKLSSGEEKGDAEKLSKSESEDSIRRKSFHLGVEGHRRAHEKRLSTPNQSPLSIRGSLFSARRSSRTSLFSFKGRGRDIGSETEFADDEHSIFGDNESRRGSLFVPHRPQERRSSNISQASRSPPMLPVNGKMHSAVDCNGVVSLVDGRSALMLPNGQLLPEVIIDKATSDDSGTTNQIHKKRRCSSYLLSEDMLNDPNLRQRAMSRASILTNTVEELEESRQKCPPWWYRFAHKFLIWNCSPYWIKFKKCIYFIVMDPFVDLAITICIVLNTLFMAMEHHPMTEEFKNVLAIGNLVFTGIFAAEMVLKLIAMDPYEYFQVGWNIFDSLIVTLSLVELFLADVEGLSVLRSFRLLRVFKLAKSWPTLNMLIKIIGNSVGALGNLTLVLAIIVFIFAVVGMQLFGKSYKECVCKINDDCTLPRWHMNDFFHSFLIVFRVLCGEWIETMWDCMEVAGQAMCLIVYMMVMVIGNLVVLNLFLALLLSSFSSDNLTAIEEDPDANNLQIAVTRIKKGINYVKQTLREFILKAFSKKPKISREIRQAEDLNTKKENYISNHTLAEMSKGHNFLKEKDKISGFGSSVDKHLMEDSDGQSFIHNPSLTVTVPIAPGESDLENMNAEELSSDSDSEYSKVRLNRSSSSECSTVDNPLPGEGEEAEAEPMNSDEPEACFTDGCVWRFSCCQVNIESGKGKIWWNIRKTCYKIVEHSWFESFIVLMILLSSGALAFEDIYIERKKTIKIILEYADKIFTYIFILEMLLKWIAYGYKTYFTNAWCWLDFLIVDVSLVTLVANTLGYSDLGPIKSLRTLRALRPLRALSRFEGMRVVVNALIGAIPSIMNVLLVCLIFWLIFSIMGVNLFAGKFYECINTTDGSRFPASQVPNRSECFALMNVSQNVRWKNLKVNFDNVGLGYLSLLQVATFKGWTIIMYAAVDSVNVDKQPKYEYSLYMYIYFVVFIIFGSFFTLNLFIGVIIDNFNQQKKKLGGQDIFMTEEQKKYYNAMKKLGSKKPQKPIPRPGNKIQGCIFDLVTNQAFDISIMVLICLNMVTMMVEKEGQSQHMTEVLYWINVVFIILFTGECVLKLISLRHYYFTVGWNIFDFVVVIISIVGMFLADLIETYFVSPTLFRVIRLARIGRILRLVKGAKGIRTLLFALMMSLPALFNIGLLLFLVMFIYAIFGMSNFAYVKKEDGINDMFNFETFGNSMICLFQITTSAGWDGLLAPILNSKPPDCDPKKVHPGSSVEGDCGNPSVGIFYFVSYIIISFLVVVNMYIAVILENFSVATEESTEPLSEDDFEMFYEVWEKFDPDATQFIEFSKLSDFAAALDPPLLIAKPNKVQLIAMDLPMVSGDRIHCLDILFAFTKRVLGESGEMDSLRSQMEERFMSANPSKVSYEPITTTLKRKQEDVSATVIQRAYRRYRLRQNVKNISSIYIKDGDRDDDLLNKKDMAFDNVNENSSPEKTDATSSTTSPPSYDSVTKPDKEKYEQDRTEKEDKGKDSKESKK

With `CC(C)(CO)Nc1nnc(-c2cccc(Cl)c2Cl)c(N)n1` [Compound 1, 2-((5-amino-6-(2,3-dichlorophenyl)-1,2,4-triazin-3-yl)amino)-2-methylpropan-1-ol], the IC50 – broadly, the point on the concentration scale where inhibition reaches its midpoint – is 60.1 µM and < 50 µM in data set [1] (setting [3]); > 200 µM and 197 µM in data set [1] (setting [4]). In addition, the “MED (mg/kg)” value in the data set with AFP model (Ph 2, timepoint 0.5 h, minimum effective dose) is given as 450 (Ph 2) mg/kg. In addition, the ED50 (commonly the midpoint of the dose-response relation) with AFP model (Ph 2, timepoint 0.5 h, read-out: ED50) worked out at 589 mg/kg.
Take `CCOC[C@H](O)CN1CCN(c2nnc(-c3cccc(Cl)c3Cl)c(N)n2)CC1` [Compound 55, (R)-1-(4-(5-Amino-6-(2,3-dichlorophenyl)-1,2,4-triazin-3-yl)piperazin-1-yl)-3-ethoxypropan-2-ol]: the 50% inhibitory concentration (IC50) in data set [1] (setting [3]) was 62.3 µM; in data set [1] (setting [4]), over 200 µM. Further, the “exposure after oral dosing (qualitative ranking)” value (“exposure after oral dosing” below) in data set [2] is “best exposure after oral dosing”.
The corresponding values for `CC(C)OC[C@H](O)CN1CCN(c2nnc(-c3cccc(Cl)c3Cl)c(N)n2)CC1` [Compound 73, (R)-1-(4-(5-Amino-6-(2,3-dichlorophenyl)-1,2,4-triazin-3-yl)piperazin-1-yl)-3-isopropoxypropan-2-ol] are under 50 µM, 179 µM and “best exposure after oral dosing”.
As to `Nc1nc(N2CCNCC2)nnc1-c1cccc(Cl)c1Cl` [Compound 79, 6-(2,3-dichlorophenyl)-3-(piperazin-1-yl)-1,2,4-triazin-5-amine], the results for the IC50 in data set [1] (setting [3]) and in data set [1] (setting [4]) were 95.3 µM and over 200 µM, respectively. Also, the “exposure after oral dosing” value in data set [2] is on record as “best exposure after oral dosing”.
Taken in the same sequence, the figures for `CC(CO)N1CCN(c2nnc(-c3cccc(Cl)c3Cl)c(N)n2)CC1` (stereo not shown) [Compound 89, 2-(4-(5-amino-6-(2,3-dichlorophenyl)-1,2,4-triazin-3-yl)piperazin-1-yl)propan-1-ol] were 66.6 µM, over 200 µM and “best exposure after oral dosing”.
Turning to `CC(C)(CO)N1CCN(c2nnc(-c3cccc(Cl)c3Cl)c(N)n2)CC1` [Compound 90, 2-(4-(5-amino-6-(2,3-dichlorophenyl)-1,2,4-triazin-3-yl)piperazin-1-yl)-2-methylpropan-1-ol], the figures for the half-maximal inhibitory concentration (IC50) in data set [1] (setting [5]) and in data set [1] (read-out: Tonic state IC50) were 56.2 µM and 183 µM, respectively. Further, the “exposure after oral dosing” value in data set [2] is reported as “best exposure after oral dosing”.
Consider `Nc1nc(N2CCN(CC(O)CO)CC2)nnc1-c1cccc(Cl)c1Cl` (stereo not shown) [Compound 92, 3-(4-(5-amino-6-(2,3-dichlorophenyl)-1,2,4-triazin-3-yl)piperazin-1-yl)propane-1,2-diol], for which the IC50 in data set [1] (setting [3]) is over 300 µM; in data set [1] (setting [4]) it was over 200 µM. Besides, the “exposure after oral dosing” value in data set [2] is “best exposure after oral dosing”.
Regarding `Cl.Cl.Nc1nc(N2CCN(C[C@H](O)COCC(F)(F)F)CC2)nnc1-c1cccc(Cl)c1Cl` [Compound 95, (S)-1-(4-(5-amino-6-(2,3-dichlorophenyl)-1,2,4-triazin-3-yl)-piperazin-1-yl)-3-(2,2,2-trifluoroethoxy)-propan-2-ol-2HCl], in the data set with AFP model (Ph 1, timepoint 0.5 h, 500 mg/kg as 2 doses @ 250 mg/kg), the “MED (mg/kg)” value was 500 (Ph 1) mg/kg. Besides, in data set [2], the “pharmacokinetics (qualitative ranking of the compounds tested)” value (“pharmacokinetics” below) is given as “most favorable pharmacokinetics” and the “exposure after oral dosing” value was “best exposure after oral dosing”.
With `COC[C@H](O)CN1CCN(c2nnc(-c3cccc(Cl)c3Cl)c(N)n2)CC1` [Compound 96, (R)-1-(4-(5-amino-6-(2,3-dichlorophenyl)-1,2,4-triazin-3-yl)piperazin-1-yl)-3-methoxypropan-2-ol], the IC50 in data set [1] (setting [5]) is under 50 µM. Further, in data set [1] (read-out: Tonic state IC50), the concentration for half-maximal inhibition (IC50) is over 200 µM. In data set [2], the “pharmacokinetics” value is “most favorable pharmacokinetics” and the “exposure after oral dosing” value is “best exposure after oral dosing”.
On to `COC[C@@H](O)CN1CCN(c2nnc(-c3cccc(Cl)c3Cl)c(N)n2)CC1` [Compound 98, (S)-1-(4-(5-amino-6-(2,3-dichlorophenyl)-1,2,4-triazin-3-yl)piperazin-1-yl)-3-methoxypropan-2-ol], for which the IC50 in data set [1] (setting [5]) is 57.5 µM and < 50 µM; in data set [1] (read-out: Tonic state IC50), over 200 µM. The “exposure after oral dosing” value in data set [2] is listed as “best exposure after oral dosing”.
Turning to `Nc1nc(N2CCN(C3CCOCC3)CC2)nnc1-c1cccc(Cl)c1Cl` [Compound 120, 3-N-(4-(tetrahydro-2H-pyran-4-yl)piperazin-1-yl) lamotrigine di HCl], in data set [2], the “pharmacokinetics” value is “most favorable pharmacokinetics” and the “exposure after oral dosing” value is “best exposure after oral dosing”.
As to `Nc1nc(N2CC(N)C2)nnc1-c1cccc(Cl)c1Cl` [Compound 126, 5-amino-3-N-(3-aminoazetidinyl) lamotrigine diHCl salt], the “exposure after oral dosing” value in data set [2] is recorded as “best exposure after oral dosing”.
As to `Nc1nc(N2CCN3C(=O)OC[C@H]3C2)nnc1-c1cccc(Cl)c1Cl` [Compound 127, (R)-7-(5-amino-6-(2,3-dichlorophenyl)-1,2,4-triazin-3-yl)tetrahydro-1H-oxazolo[3,4-a]pyrazin-3(5H)-one], the IC50 in data set [1] (setting [5]) is over 300 µM. For the same molecule, the half-maximal inhibitory concentration (IC50) in data set [1] (read-out: Tonic state IC50) is over 200 µM. Further, in data set [2], the “pharmacokinetics” value is on record as “most favorable pharmacokinetics” and the “exposure after oral dosing” value is reported as “best exposure after oral dosing”.
Taken in the same sequence, the figures for `Nc1nc(N2CCN3C(=O)OC[C@@H]3C2)nnc1-c1cccc(Cl)c1Cl` [Compound 128, (S)-7-(5-amino-6-(2,3-dichlorophenyl)-1,2,4-triazin-3-yl)tetrahydro-1H-oxazolo[3,4-a]pyrazin-3(5H)-one HCl salt] were over 300 µM, over 200 µM, “most favorable pharmacokinetics” and “best exposure after oral dosing”.
Consider `Nc1nc(N2CC(O)C2)nnc1-c1cccc(Cl)c1Cl` [Compound 129, 3-N-(3-hydroxyazetin-1-yl) lamotrigine], for which, in data set [2], the “pharmacokinetics” value was “most favorable pharmacokinetics” and the “exposure after oral dosing” value was “best exposure after oral dosing”.
Consider `Nc1nc(N2CCN3C(=O)COC[C@H]3C2)nnc1-c1cccc(Cl)c1Cl` [Compound 130, (R)-8-(5-amino-6-(2,3-dichlorophenyl)-1,2,4-triazin-3-yl)hexahydropyrazino[2,1-c][1,4]oxazin-4(3H)-one HCl salt], for which the concentration for half-maximal inhibition (IC50) in data set [1] (setting [5]) is 204 µM. Besides, the IC50 in data set [1] (read-out: Tonic state IC50) is over 200 µM. Besides, in data set [2], the “pharmacokinetics” value was “most favorable pharmacokinetics” and the “exposure after oral dosing” value was “best exposure after oral dosing”.
In the case of `Nc1nc(N2CC(O)(C(F)(F)F)C2)nnc1-c1cccc(Cl)c1Cl` [Compound 165, 3-N-(3-hydroxy-3-trifluoromethyl)azetidinyl lamotrigine], in data set [2], the “exposure after oral dosing” value is reported as “best exposure after oral dosing”.
For `Nc1nc(NCCOCCOCCOC(F)(F)F)nnc1-c1cccc(Cl)c1Cl` [Compound 167, 6-(2,3-dichlorophenyl)-N^3-(2-(2-(2-(trifluoromethoxy)ethoxy)ethoxy)ethyl)-1,2,4-triazine-3,5-diamine], the IC50 is under 50 µM in data set [1] (setting [3]); 108 µM and 91.5 µM and 130 µM in data set [1] (setting [4]). For the same molecule, the “MED” value with AFP model (+ABT, timepoint 0.5 h, minimum effective dose) was 100 mg/kg.
For the molecule `CC(CO)Nc1nnc(-c2cccc(Cl)c2Cl)c(N)n1` (stereo not shown) [Compound 182, 2-((5-amino-6-(2,3-dichlorophenyl)-1,2,4-triazin-3-yl)amino)propan-1-ol], the “exposure after oral dosing” value in data set [2] is recorded as “best exposure after oral dosing”.
`COCCOCCOCC(C)Nc1nnc(-c2cccc(Cl)c2Cl)c(N)n1` (stereo not shown) [Compound 188, 6-(2,3-dichlorophenyl)-N3-(1-(2-(2-methoxyethoxy)ethoxy)propan-2-yl)-1,2,4-triazine-3,5-diamine.HCl]: the “exposure after oral dosing” value in data set [2] is “best exposure after oral dosing”.
Consider `Nc1nc(N2CCN(CCO)CC2)nnc1-c1cccc(Cl)c1Cl` [Compound 200, 2-(4-(5-amino-6-(2,3-dichlorophenyl)-1,2,4-triazin-3-yl)piperazin-1-yl)ethanol], for which the values for the IC50 in data set [1] (setting [3]) and in data set [1] (setting [4]) were 120 µM and over 200 µM, respectively. For the same molecule, the “exposure after oral dosing” value in data set [2] is on record as “best exposure after oral dosing”.
Taken in the same sequence, the figures for `Nc1nc(N2CCN(CCOCCO)CC2)nnc1-c1cccc(Cl)c1Cl` [Compound 201, 2-(2-(4-(5-amino-6-(2,3-dichlorophenyl)-1,2,4-triazin-3-yl)piperazin-1-yl)ethoxy)ethanol] were 202 µM, over 200 µM and “best exposure after oral dosing”.
On to `CS(=O)(=O)CCN1CCN(c2nnc(-c3cccc(Cl)c3Cl)c(N)n2)CC1` [Compound 202, 6-(2,3-dichlorophenyl)-3-(4-(2-(methylsulfonyl)ethyl)piperazin-1-yl)-1,2,4-triazin-5-amine], for which the results for the IC50 in data set [1] (setting [5]) and in data set [1] (read-out: Tonic state IC50) were over 300 µM and over 200 µM, respectively. Moreover, the “exposure after oral dosing” value in data set [2] was “best exposure after oral dosing”.
